# Reference: PubChem BioAssay AID330 (DTP/NCI, 2004)
# Several values for one entry are separate records, joined by “and”; a condition that tells them apart may be missing. Identical values can stand only once. Inconclusive results and toxic doses are left out.
# Tested on: P388 leukemia ip, CD2F1 mice, survival T/C
# Assay: NCI In Vivo Anticancer Drug Screen. Data for tumor model P388 Leukemia (intraperitoneal) in CD2F1 (CDF1) mice
# Conditions: endpoint: median survival time, higher = longer survival
# In short: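 Mice carrying the transplanted tumor received test compound or vehicle. Survival was recorded in each group, and the value is the treated-group measurement divided by that of the vehicle-treated control group.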
# [1] = dose: 60.0 mg/kg/injection, schedule: Q01DX005 (ip), vehicle: Klucel (hydroxypropylcellulose) (HPC)
# [2] = dose: 120.0 mg/kg/injection, schedule: Q01DX005 (ip), vehicle: Klucel (hydroxypropylcellulose) (HPC)
# [3] = dose: 12.5 mg/kg/injection, schedule: Q01DX005 (ip), vehicle: Klucel (hydroxypropylcellulose) (HPC)
# [4] = dose: 25.0 mg/kg/injection, schedule: Q01DX005 (ip), vehicle: Klucel (hydroxypropylcellulose) (HPC)
# [5] = dose: 50.0 mg/kg/injection, schedule: Q01DX005 (ip), vehicle: Klucel (hydroxypropylcellulose) (HPC)
# [6] = dose: 100.0 mg/kg/injection, schedule: Q01DX005 (ip), vehicle: Klucel (hydroxypropylcellulose) (HPC)
# [7] = dose: 50.0 mg/kg/injection, schedule: Q01DX009 (ip), vehicle: Klucel (hydroxypropylcellulose) (HPC)
# [8] = dose: 100.0 mg/kg/injection, schedule: Q01DX009 (ip), vehicle: Klucel (hydroxypropylcellulose) (HPC)
# [9] = dose: 200.0 mg/kg/injection, schedule: Q01DX009 (ip), vehicle: Klucel (hydroxypropylcellulose) (HPC)
# [10] = dose: 100.0 mg/kg/injection, schedule: Q04DX003 (ip), vehicle: saline
# [11] = dose: 50.0 mg/kg/injection, schedule: Q01DX005 (ip), vehicle: saline with Tween-80
# [12] = dose: 100.0 mg/kg/injection, schedule: Q01DX005 (ip), vehicle: saline with Tween-80
# [13] = dose: 200.0 mg/kg/injection, schedule: Q01DX005 (ip), vehicle: saline with Tween-80
# [14] = dose: 25.0 mg/kg/injection, schedule: Q01DX005 (ip), vehicle: saline with Tween-80
# [15] = dose: 200.0 mg/kg/injection, schedule: Q01DX005 (ip), vehicle: Klucel (hydroxypropylcellulose) (HPC)
compound,measurement,setting,value
CCC1=C[C@H]2CN(CCc3c([nH]c4ccccc34)[C@@](OC(C)=O)(c3cc4c(cc3OC)N(C)[C@H]3[C@@](O)(C(=O)NCCSc5ccccc5)[C@H](O)[C@]5(CC)C=CCN6CC[C@]43[C@@H]65)C2)C1,T/C,"dose: 0.5 mg/kg/injection, schedule: Q01DX001 (ip), vehicle: water",107 % of control
same,T/C,"dose: 8.0 mg/kg/injection, schedule: Q01DX001 (ip), vehicle: water",174 % of control
same,T/C,"dose: 16.0 mg/kg/injection, schedule: Q01DX001 (ip), vehicle: water",163 % of control and 184 % of control
Nc1nc(SCC(=O)O)[nH]c(=O)c1NS(=O)(=O)c1ccccc1,T/C,[1],108 % of control
same,T/C,[2],109 % of control
N#CCc1ccccc1-c1ccccc1,T/C,[3],99 % of control
same,T/C,[4],94 % of control
same,T/C,[5],99 % of control
Nc1ncnc2c1nnn2CC(O)CO (centres undefined),T/C,[1],99 % of control
same,T/C,[2],92 % of control
Cc1cccc(N=Nc2c(C)nn(C(N)=S)c2C)c1C,T/C,[4],90 % of control
same,T/C,[5],94 % of control
same,T/C,[6],106 % of control
S=C(/N=N/c1[nH]c2ccccc2c1NNC(=S)NC12CC3CC(CC(C3)C1)C2)NC12CC3CC(CC(C3)C1)C2,T/C,"dose: 30.0 mg/kg/injection, schedule: Q01DX005 (ip), vehicle: saline with Tween-80",96 % of control
same,T/C,"dose: 60.0 mg/kg/injection, schedule: Q01DX005 (ip), vehicle: saline with Tween-80",96 % of control
same,T/C,"dose: 120.0 mg/kg/injection, schedule: Q01DX005 (ip), vehicle: saline with Tween-80",87 % of control
same,T/C,"dose: 240.0 mg/kg/injection, schedule: Q01DX005 (ip), vehicle: saline with Tween-80",90 % of control
CCOc1ccc2c(O)csc2c1,T/C,"dose: 100.0 mg/kg/injection, schedule: Q04DX003 (ip), vehicle: saline with Tween-80",100 % of control
same,T/C,"dose: 200.0 mg/kg/injection, schedule: Q04DX003 (ip), vehicle: saline with Tween-80",100 % of control
same,T/C,"dose: 400.0 mg/kg/injection, schedule: Q04DX003 (ip), vehicle: saline with Tween-80",90 % of control
N#CC1C(=O)NC(=O)C(C#N)C1c1c(Cl)cccc1Cl (centres undefined),T/C,[7],101 % of control
same,T/C,[8],99 % of control
same,T/C,[9],99 % of control
CSC(=S)c1ccc(NSc2ccccc2[N+](=O)[O-])cc1,T/C,[10],113 % of control
same,T/C,"dose: 200.0 mg/kg/injection, schedule: Q04DX003 (ip), vehicle: saline",110 % of control
same,T/C,"dose: 400.0 mg/kg/injection, schedule: Q04DX003 (ip), vehicle: saline",93 % of control
CN(C[CH2][Sn]([CH3])([CH3])[Cl])C[CH2][Sn]([CH3])([CH3])[Cl],T/C,"dose: 3.75 mg/kg/injection, schedule: Q01DX005 (ip), vehicle: saline",102 % of control
same,T/C,"dose: 7.5 mg/kg/injection, schedule: Q01DX005 (ip), vehicle: saline",121 % of control
c1ccc(N2CCN(c3ccccc3)C2=C2N(c3ccccc3)CCN2c2ccccc2)cc1,T/C,"dose: 3.0 mg/kg/injection, schedule: Q01DX005 (ip), vehicle: saline",105 % of control
same,T/C,"dose: 6.0 mg/kg/injection, schedule: Q01DX005 (ip), vehicle: saline",107 % of control
same,T/C,"dose: 12.0 mg/kg/injection, schedule: Q01DX005 (ip), vehicle: saline",105 % of control
same,T/C,"dose: 12.5 mg/kg/injection, schedule: Q01DX005 (ip), vehicle: saline",114 % of control
same,T/C,"dose: 25.0 mg/kg/injection, schedule: Q01DX005 (ip), vehicle: saline",99 % of control and 118 % of control
CN1CCC(O)CC1=O (centres undefined),T/C,[11],104 % of control
same,T/C,[12],98 % of control
same,T/C,[13],101 % of control
CC1(CCC(=O)c2cc3c(cc2Br)OCO3)OCCO1,T/C,[14],99 % of control
same,T/C,[11],99 % of control
same,T/C,[12],100 % of control
O=c1[nH]c2cc3c(cc2n2cccc12)oc1ccccc13,T/C,[14],98 % of control
same,T/C,[11],100 % of control
same,T/C,[12],100 % of control
same,T/C,[13],100 % of control
CCCCN=C(N)N/N=C(\C)c1cccc2c1Cc1c(/C(C)=N/NC(N)=NCCCC)cccc1-2,T/C,"dose: 12.5 mg/kg/injection, schedule: Q04DX002 (ip), vehicle: saline with Tween-80",108 % of control
COc1cc2c(c(OC)c1OC)-c1ccc(SC)c(=O)cc1C(N(C)C(=O)C(F)(F)F)CC2 (centres undefined),T/C,"dose: 1.25 mg/kg/injection, schedule: Q01DX009 (ip), vehicle: Klucel (hydroxypropylcellulose) (HPC)",109 % of control
same,T/C,"dose: 2.5 mg/kg/injection, schedule: Q01DX009 (ip), vehicle: Klucel (hydroxypropylcellulose) (HPC)",111 % of control and 122 % of control
same,T/C,"dose: 20.0 mg/kg/injection, schedule: Q01DX009 (ip), vehicle: Klucel (hydroxypropylcellulose) (HPC)",89 % of control
C/C(=N\NC(=S)N1CCN(C)CC1)c1ccccn1,T/C,"dose: 25.0 mg/kg/injection, schedule: Q04DX003 (ip), vehicle: saline",104 % of control
same,T/C,"dose: 50.0 mg/kg/injection, schedule: Q04DX003 (ip), vehicle: saline",107 % of control
same,T/C,[10],101 % of control
NNC(=O)CS(=O)(=O)Nc1ncccn1,T/C,[5],100 % of control
same,T/C,[6],100 % of control
same,T/C,[15],100 % of control
Cn1c2ncccc2c(=O)c2c(O)cc3c(c21)C=CC(C)(C)O3,T/C,[3],100 % of control
same,T/C,[4],102 % of control
same,T/C,[5],101 % of control and 93 % of control
CC[C@@H]1C[C@@H]2CN3CCc4c([nH]c5cc(Cc6ccc(OC)c(OC)c6)c(OC)cc45)C(C(=O)OC)(C2)C13,T/C,"dose: 0.5 mg/kg/injection, schedule: Q01DX009 (ip), vehicle: Klucel (hydroxypropylcellulose) (HPC)",96 % of control
same,T/C,"dose: 1.0 mg/kg/injection, schedule: Q01DX009 (ip), vehicle: Klucel (hydroxypropylcellulose) (HPC)",107 % of control
same,T/C,"dose: 2.0 mg/kg/injection, schedule: Q01DX009 (ip), vehicle: Klucel (hydroxypropylcellulose) (HPC)",111 % of control
same,T/C,"dose: 4.0 mg/kg/injection, schedule: Q01DX009 (ip), vehicle: Klucel (hydroxypropylcellulose) (HPC)",107 % of control and 97 % of control
same,T/C,"dose: 8.0 mg/kg/injection, schedule: Q01DX009 (ip), vehicle: Klucel (hydroxypropylcellulose) (HPC)",101 % of control
same,T/C,"dose: 16.0 mg/kg/injection, schedule: Q01DX009 (ip), vehicle: Klucel (hydroxypropylcellulose) (HPC)",98 % of control
NC(CCC(N)C(=O)O)C(=O)O (centres undefined),T/C,"dose: 25.0 mg/kg/injection, schedule: Q01DX009 (ip), vehicle: Klucel (hydroxypropylcellulose) (HPC)",97 % of control
same,T/C,[7],93 % of control
same,T/C,[8],87 % of control
same,T/C,[9],86 % of control
CCC12CCCN3CCc4c(n(c5ccc(Br)cc45)C(=O)CC1)C32 (centres undefined),T/C,"dose: 12.5 mg/kg/injection, schedule: Q01DX005 (ip), vehicle: saline with Tween-80",99 % of control
same,T/C,[14],90 % of control
same,T/C,[11],88 % of control and 91 % of control
CC(=O)C[n+]1ccccc1Sc1ccccc1C,T/C,[11],103 % of control
O=C1c2ccccc2C(=O)N1/N=[N+](\[O-])N1Cc2ccccc2C1,T/C,[4],97 % of control
same,T/C,[5],101 % of control
same,T/C,[6],99 % of control
same,T/C,[15],99 % of control
CC1CC(C)CN(S(=O)(=O)c2cc(Cl)c(Oc3ccc([N+](=O)[O-])cc3Cl)c(Cl)c2)C1 (centres undefined),T/C,[1],101 % of control
same,T/C,[2],100 % of control
same,T/C,"dose: 240.0 mg/kg/injection, schedule: Q01DX005 (ip), vehicle: Klucel (hydroxypropylcellulose) (HPC)",110 % of control
CC(C)COCSCC(NC(=O)CNC(=O)C(Cc1ccccc1)NC(=O)CNC(=O)C(CSC(c1ccccc1)(c1ccccc1)c1ccccc1)NC(c1ccccc1)(c1ccccc1)c1ccccc1)C(=O)O (centres undefined),T/C,"dose: 15.0 mg/kg/injection, schedule: Q01DX005 (ip), vehicle: Klucel (hydroxypropylcellulose) (HPC)",97 % of control
same,T/C,"dose: 30.0 mg/kg/injection, schedule: Q01DX005 (ip), vehicle: Klucel (hydroxypropylcellulose) (HPC)",96 % of control
same,T/C,[1],88 % of control and 94 % of control
O=C(Nc1ccccc1)c1csc(-c2csc(CCNC(=O)C(F)(F)F)n2)n1,T/C,"dose: 12.5 mg/kg/injection, schedule: Q01DX009 (ip), vehicle: distilled water + Tween-80",88 % of control
same,T/C,"dose: 25.0 mg/kg/injection, schedule: Q01DX009 (ip), vehicle: distilled water + Tween-80",88 % of control
same,T/C,"dose: 100.0 mg/kg/injection, schedule: Q01DX009 (ip), vehicle: distilled water + Tween-80",88 % of control
same,T/C,"dose: 200.0 mg/kg/injection, schedule: Q01DX009 (ip), vehicle: distilled water + Tween-80",89 % of control
